Results reported in patent publication US9533049B2, “Method for preparing nanoparticles based on functional amphiphilic molecules or macromolecules, and the use thereof” (UNIVERSITE VICTOR SEGALEN BOURDEAUX 2, priority 2007, dated 2017).
pIC50: −log10 of the molar value.

What was measured:
Assay type in all cases: cell-based
IGROV1 cells [1] = assay: Cytotoxicity, MTS colorimetric assay (Example 21); conditions: IGROV1, incubation time 24 h
Protocol: 1000 to 5000 IGROV1 cells are incubated in 100 μL of medium with serum per well (96-well plate). After 24 h the medium is removed and the cells are treated for 1 to 3 days with the formulations according to the invention and/or free cis-Pt (at the desired concentrations). The cells are incubated at 37° C. in 200 μL of medium with serum.
(§1) The survival of the cells was determined, and the overall percentage of death (or cytotoxicity) obtained at the different concentrations of formulations tested was compared with that obtained with the negative controls (untreated cells). The cytotoxicity results were presented in the form of dose-effect curves characterized by their inhibitory concentration 50 (IC50), i.e. the concentration at which 50% dead cells are observed.

[2] = test system: human cancer cell line HCT8 (colorectal adenocarcinoma); assay: Cytotoxicity, crystal violet staining, HCT8 line; conditions: HCT8, short exposure 30 min in physiological serum; preliminary results
Protocol: The test implemented uses the human cancer cell line HCT8 (colorectal adenocarcinoma), known for its intrinsic resistance to platinum derivatives.
The protocol is as follows: • […], the cells are implanted in 96-well plates at a density of 50,000 cells per well. • On D0, the cells are treated by the formulation test, either for a short exposure period (30 min) in physiological serum, or for a long exposure period (72 h) in culture medium. The range of concentrations produced comprises the points 0-0.4-0.8-1.5-3-6.25-12.5-25-50 and 100 mg/L. Negative controls (untreated cells) and positive controls (cis-platin) were carried out simultaneously. • On D3, the culture medium is changed, and the 72 h treatment stopped. • On D6, the protocol is completed, and the cells remaining at the bottom of the well are stained with crystal violet.
as §1, with “different test formulation” for “different”, “concentrations” for “concentrations of formulations tested”

[3] = test system: IGROV1 (ovarian adenocarcinoma line, sensitive to cis-platin); assay: Cytotoxicity, MTS assay (Example 22), IGROV1; conditions: IGROV1, treatment 24 hours in medium without serum, MTS 48 hours after washing; read-out: concentration necessary to obtain 50% cell death (IC50)
Protocol: (§2) 2500 cells (IGROV1, SKOV3, ovarian adenocarcinoma lines) per well are incubated in 100 μL of the medium with serum in a 96-well plate. After 24 hours the medium is aspirated and the cells are treated with free cis-platin or cis-platin encapsulated in the nanoparticles of Example 16 in 100 μL of the medium without serum at different concentrations (500, 100, 10, 1, 0.1, 0.01, 0.001 μM). After treatment for 24 hours, the medium is removed and the cells are washed twice with 100 μL of PBS then incubated with 100 μL of the medium with serum.
(§3) The absorbance at 490 nm is measured after incubation for 2 to 4 hours at 37° C. The absorbance is proportional to the cell viability.

[4] = test system: SKOV3 (ovarian adenocarcinoma line, resistant to cis-platin); assay: Cytotoxicity, MTS assay (Example 22), SKOV3; conditions: SKOV3, treatment 24 hours in medium without serum, MTS 48 hours after washing; read-out: concentration necessary to obtain 50% cell death (IC50)
Protocol: as §2, §3

IGROV1 cells [5] = assay: Assay of intracellular cis-platin (ICP optical assay after cell lysis); conditions: 10^6 cells, 100 μM, 2 h
Protocol: IGROV1 cells (ovarian adenocarcinoma line) at 80% confluence (dish 10 cm in diameter) are treated with 100 μM of free cis-platin or cis-platin encapsulated in the nanoparticles of Example 16 for 2, 4 or 6 h. On completion of this treatment two washings with PBS are carried out. The cells are treated with trypsin and resuspended in PBS. Two washings of the cell suspensions with PBS are carried out (centrifugation 1000 rpm/1 min). The cells are suspended in 1 mL of PBS and counted.
10^6 cells are lysed with 500 μL of the cell lysis solution (lysis buffer from SIGMA). The volume is topped up to 5 mL with milli-Q water with 1% HNO3 acid.

What does the source list for N.N.[Cl][Pt][Cl] [cis-platin]?
IC50 Expressed (IGROV1 cells [1]; mg/L of cis-platin): 9.48 µg/mL; pIC50 (IGROV1 cells [1]; read-out: IC50 Expressed): 4.50; IC50 (mg/L) [2]: IC50 > at 100 mg/L; pIC50 [3]: 5.62; pIC50 [4]: 5.37; cis-platin internalized (IGROV1 cells [5]): 0.5 nmol
